Reference: patent US10251862B2, “Cosmetic composition containing hydroxy pyranone derivative compound for promoting differentiation of adipocytes” (AMOREPACIFIC CORPORATION, priority 2014, dated 2019)

Legend:
Adiponectin = assay: Measurement of expression level of adiponectin in human adipose-derived mesenchymal stem cells (ELISA); assay type: cell-based; conditions: for Adiponectin (pg/mL, avg ± S.D.): secreted into culture medium, day 14 of differentiation, together with IDX, sample 60 μM; for effect of increasing adiponectin expression (in words): 60 μM with IDX, day 14, Table 1
Method: Adiponectin is a representative protein hormone secreted in adipocytes. It is reported that the expression of adiponectin is increased with the differentiation into adipocytes. Accordingly, the amount of adiponectin secreted into a cell culture medium was measured as a marker of promotion of adipocyte differentiation. In order to measure the secreted amount of adiponectin, human adipose-derived mesenchymal stem cells purchased form Lonza, Inc. were gathered on day 14 after they began to differentiate into adipocytes and the amount of adiponectin was quantified using an adiponectin ELISA kit (R&D Systems, Cat. No. DY1065) as follows (Data were normalized to that of the control group). Specifically, after reacting with a capture antibody on a 96-well plate and washing with a washing buffer, the cells were treated with a sample at a concentration of 60 μM and incubated at room temperature for 2 hours. Subsequently, the cells were incubated with a detection antibody, HRP, a substrate solution and a stop solution for the time specified in the protocol, while washing 3 times between each step. After the final incubation, absorbance was measured at 450 nm using a spectrophotometer.

[1] = system: Human adipose-derived mesenchymal stem cells (hAT-MSCs); assay: Inducement of differentiation of adipose-derived mesenchymal stem cells into adipocytes (Oil Red O staining); assay type: cell-based; conditions: day 14
From the text: Human adipose-derived mesenchymal stem cells (hAT-MSCs) were purchased form Lonza, Inc. (Walkersville, Md., USA) and cultured according to the instructions of Lonza, Inc. The adipose-derived mesenchymal stem cells were induced to differentiate into adipocytes according to the instructions of Lonza, Inc. except that troglitazone (TRO) was used instead of indomethacin. Specifically, the mesenchymal stem cells were differentiated into adipocytes by adding to a culture of the mesenchymal stem cells […] insulin, 1 µM dexamethasone (DEXA), 0.5 mM isobutylmethylxanthine (IBMX) and […] TRO. To a test group, the compound of Example 1 was added to the medium at a concentration of 30 μM when inducing the differentiation into adipocytes. A positive control group was treated with 30 μM glibenclamide together with IDX. On day 14 after the adipose-derived mesenchymal stem cells began to differentiate into adipocytes, the cells were washed with 10 mL of phosphate-buffered saline (PBS) and then fixed for 10 minutes using a 10% formalin/PBS solution (0.2 mL/cm^2). The fixed cells were washed once with a 60% isopropanol solution (0.5 mL/cm^2) and lipid bodies in the adipocytes were stained for 10 minutes with Oil Red O dissolved in 60% isopropanol (0.2 mL/cm^2). Then, after staining again with hematoxylin to visualize nuclei, the cells were observed under a microscope.

SMILES	Adiponectin (pg/mL, avg ± S.D.) (Adiponectin)	effect of increasing adiponectin expression (in words) (Adiponectin)	differentiation into adipocytes as compared to treatment with IDX only ([1]; 30 μM added to medium when inducing differentiation, Oil Red O staining, microscope (FIG. 1))	number of the stained cells compared with glibenclamide as positive control ([1]; 30 μM, Oil Red O staining (FIG. 1))
COc1ccc(Cl)cc1C(=O)NCCc1ccc(S(=O)(=O)NC(=O)NC2CCCCC2)cc1 [glibenclamide, reference compound]	1832 ± 110 pg/mL	–	–	–
O=C(/C=C/c1ccc2c(c1)OCO2)OCc1cc(=O)c(O)co1 [Example 1, (2E)-(5-hydroxy-4-oxo-4H-pyran-2-yl)methyl 3-(benzo[d][1,3]dioxo-6-yl)acrylate]	1435 ± 113 pg/mL	increased the expression of adiponectin	increased differentiation into adipocytes	slightly less
O=c1cc(CO)occ1O [kojic acid, reference compound]	312 ± 103 pg/mL	did not show an effect of increasing adiponectin expression	–	–
O=C(/C=C/c1ccc2c(c1)OCCO2)OCc1cc(=O)c(O)co1 [Example 2, (2E)-(5-hydroxy-4-oxo-4H-pyran-2-yl)methyl 3-(2,3-dihydroxybenzo[b][1,4]dioxo-7-yl)acrylate]	1300 ± 140 pg/mL	increased the expression of adiponectin	–	–
